Values of other authors, collected in patent US20090022706A1, “SUBSTITUTED CYCLOHEXENES” (Auspex Pharmaceuticals, Inc., priority 2007, published 2009).

What was measured:
[1] = tested on: Toll-Like Receptor 4 (TLR4)-mediated cytokine production; details: under pro-inflammatory conditions
[2] = tested on: nitric oxide (NO) production

CCOC(=O)C1=CCCC[C@H]1S(=O)(=O)Nc1ccc(F)cc1Cl [TAK-242, (R)-6-(2-chloro-4-fluoro-phenylsulfamoyl)-cyclohex-1-enecarboxylic acid ethyl ester]
production of various cytokines, such as IL-1β, IL-6, IL-12, and TNF-α [1]: inhibits
in vitro production of nitric oxide (NO) [2]: inhibits
